Laboratory results published in patent US8734787B2, “Drug delivery system” (Erydel S.p.A., priority 2009, dated 2014).

Experiments:
[1] = Preliminary binding studies rFKBP12-FK506 (Dot Blot); details: 2.5, 5, 10 μg/well protein
Experimental: the ability of 6His-FKBP12 to bind the FK506 ligand was assessed by a slightly modified Dot Blot analysis. Briefly, 6His-FKBP12 in native conditions was dot-blotted onto a 0.2 μm nitrocellulose membrane at increasing concentrations (2.5, 5, 10 μg/well). Successively, the membrane was subjected to a single incubation step with a solution of Tacrolimus-horseradish peroxidase conjugate (PRO-Trac™ II Tacrolimus 5× Conjugate, DiaSorin, Stillwater, Minn., USA) to allow FKBP12-Tacrolimus binding.

human erythrocytes = experiment: Loading of recombinant FKBP12 into human erythrocytes (cell recovery, corpuscular indices); details: at the three tested concentrations (20, 40 and 80 μM)
Experimental: recombinant FKBP12 was encapsulated into human erythrocytes by means of a procedure of hypotonic dialysis, isotonic resealing and “reannealing” as previously described [Magnani M 1989]. In particular, human red blood cells were obtained from fresh blood collected in heparin from healthy donors and washed with physiologic solution containing Hepes 10 mM (pH 7.4), NaCl 154 mM and Glucose 5 mM to remove leukocytes and platelets. Recovered RBC were re-suspended at 70% haematocrit in physiologic solution, the suspension aliquoted in 3 tubes and rFKBP12 added at increasing concentrations (20, 40, 80 μM/tube). Each erythrocyte suspension was dialysed in dialysis tube with 3.5 kDa cut-off for 90 minutes at 4° C. against 50 volumes of hypotonic solution 60 mOsm containing NaH2PO4 10 mM, NaHCO3 10 mM pH 7.4, glucose 20 mM, GSH 3 mM and ATP 2 mM. At the end of the dialysis step, RBC suspensions were collected and allowed to equilibrate at 37° C. for 5 minutes under gentle stirring. […] RBC corpuscolar indices MCV, Mean Corpuscular Volume, MCH, Mean Corpuscular Haemoglobin and MCHC, Mean Corpuscular Haemoglobin Concentration) were evaluated for both loaded and un-loaded cells at the end of the procedure.

erythrocytes [2] = experiment: Literature: distribution of FK506 in blood and RBC binding capacity; assay type: in vitro ADME; details: calculated
erythrocytes [3] = details: cited from earlier work
[4] = 10-12 hours post-dose; cited from earlier work

FK506 binding capacity for native RBC (erythrocytes [2]) [μg/ml RBC 40% Ht]	Molecule	ability to bind the FK506 ligand [1]	haemolytic effect (human erythrocytes)	binding capacity of RBC (erythrocytes [3])	fraction in blood associated with erythrocytes (erythrocytes [3])	fraction in blood associated with lymphocytes (erythrocytes [3]) [%]	fraction in blood associated with plasma (erythrocytes [3]) [%]	therapeutic window [4]
–	recombinant FKBP12: N-terminal His-tagged recombinant form of human 12-kDa FK506 Binding Protein expressed in E. coli BL21(DE3)	able to bind Tacrolimus in a specific and dose-dependent manner	does not appear haemolytic	–	–	–	–	–
0.4	C=CC[C@@H]1/C=C(\C)C[C@H](C)C[C@H](OC)[C@H]2O[C@@](O)(C(=O)C(=O)N3CCCC[C@H]3C(=O)O[C@H](/C(C)=C/[C@@H]3CC[C@@H](O)[C@H](OC)C3)[C@H](C)[C@@H](O)CC1=O)[C@H](C)C[C@@H]2OC (relative stereo) [FK506, 3S-[3R*[E(1S*,3S*,4S*)],4S*,5R*,8S*,9E,12R*,14R*,15S*,-16R*,18S*, 19S*,26aR*]]-5,6,8,11,12,13,14,15,16,17,18,19,24,25,26,26a-hexadecahydro-5,19-dihydroxy-3-[2-(4-hydroxy-3-methoxycyclohexyl)-1-methylethenyl]-14,16-dimethoxy-4,10,12,18-tetramethyl-8-(2-propenyl)-15,19-epoxy-3H-pyrido[2,1-c][1,4]oxaazacyclotricosine-1,7,20,21(4H,23H)-tetrone mono-hydrate]	–	–	around 440 ng/ml of blood	about 85%	0.46	14	5-20 ng/ml whole blood
